Experimental data reported in patent publication US6555375B1, “Methods for somatic embryo formation and plant regeneration of Beta vulgaris” (priority 2000, dated 2003).

Assays:
[1] = system: sugar beet somatic embryos; assay: Germination of primary somatic embryos on MS medium containing cytokinin; type: cell-based, Beta vulgaris
Protocol: The embryos germinated quickly when transferred to fresh medium either supplemented with phytohormones or not. […] These embedded tissues were manually isolated, separated and transferred into liquid medium (MS medium+BAP 0.2 mg/L). The cultures were maintained at constant agitation (100 rpm) in the dark with biweekly changes of the medium. The white embryogenic tissue masses expanded in two weeks and snow-white fresh outgrowths formed on the surface of older tissues (FIG. 2B). Clumps of white embryogenic tissue masses were divided and transferred to fresh medium for further proliferation. A couple of such passages was enough to generate a large number of white clumps. Part of these tissues was used for the optimization of culture medium.

[2] = system: sugar beet seedling tissues (hypocotyls, cotyledons); assay: Callus induction from sugar beet seedling explants on MS medium with cytokinin; type: cell-based, Beta vulgaris
Protocol: Seeds from three sugar beet lines ACH199 (triploid), ACH31 (triploid) and ACH203 (diploid) were obtained from Crystal and Maribo Beet Seed, Moorehead, Minn. USA. To remove seed covers, Beta vulgaris seeds were soaked in the tap water overnight and then washed under water flow. Seeds were sterilized by sequential treatment with 70% (v/v) ethanol (1 min.), 0.1% (w/v) mercuric chloride (10 min.) and 10% (v/v) household laundry bleach (20 min.) followed by four washes with sterile distilled water. Seeds were then dried on sterile filter paper. All steps were performed in a laminar flow hood.
A series of media which included additional supplements were used for callus induction, embryo proliferation and shoot formation. Phytohormones (BAP, TDZ, NAA, IAA, 2,4-D) were added to the media before autoclaving (120° C. for 20 min.). The basal medium for callus induction and embryogenesis is MS medium comprising MS basal salts, 3% sucrose, 100 mg/L myo-inositol, 0.5 mg/L nicotinic acid, 0.5 mg/L pyridoxine-HCl, 1 mg/L thiamine-HCl and 0.8% (w/v) Difco agar. The basal medium for proliferation of repetitive embryos is MSE (MS basal salts, 100 mg/L myo-inositol, 0.5 mg/L nicotinic acid, 0.5 mg/L pyridoxine-HCl, 1 mg/L thiamine-HCl).
Petri dishes (100 mm×25 mm) containing 25 mL of medium were used for all experiments. Seeds were placed on MS medium, containing either BAP 2 mg/L or TDZ 1 mg/L; plates were sealed and placed in the dark place at 21° C. Cotyledons and hypocotyls (FIG. 1A) were excised from two-week-old seedlings, cut into several pieces, incised and placed on callus induction medium (MS medium supplemented with either 2 mg/L of BAP or 1 mg/l of TDZ). Plates were incubated in the dark at 21° C. Four weeks later, when explants were necrotic and dark brown, colonies of white friable callus appeared on the explant surface (FIG. 1B). Most of the callus formed on hypocotyls. Only a few colonies were found on cotyledons.

[3] = system: friable callus of sugar beet; assay: Shoot/plant regeneration from friable callus; type: cell-based, Beta vulgaris
Protocol: (§1) For regeneration of embryos, friable callus was transferred to callus regeneration medium (MS medium supplemented with either 1 mg/L of BAP or 1 mg/L of TDZ). The cultures were incubated at 25° C. under a photoperiod of 16 hours of light of cool, white light at an intensity of 30 μmol m^−2s^−1 followed by a 8 hours of darkness. Callus began to grow vigorously, and by the end of the second week, it was possible to distinguish several callus types as well as small embryos (FIG. 1C). Since every seedling was treated as a separate line, quantitative analysis can be applied to the results of the experiments.
All explants of one type from the same line (i.e. only hypocotyls) were able to produce callus, if any did. At the same time, there were only a few cases where callus formed from both cotyledons and hypocotyls of the same seedling (twice in ACH31 and four times in ACH203).

[4] = system: friable callus of sugar beet; assay: Somatic embryogenesis from friable callus; type: cell-based, Beta vulgaris; details: callus of ACH199 on MS+BAP at 1 mg/L
Protocol: as §1
After having subcultured callus tissues on regeneration medium, friable callus grew quite fast, expanded vigorously and was almost totally necrotic after a month. At this moment a few white embryogenic structures at different stages of development became visible (FIG. 1D); however, only callus of ACH199 growing on MS+BAP at 1 mg/L produced such structures. The frequency of embryogenesis was very low. Seven separate embryos were found in two out of 40 independent callus lines.

[5] = system: embryogenic tissue masses of sugar beet; assay: Repetitive embryogenic culture: optimization of proliferation medium; type: cell-based, Beta vulgaris; details: for Effect of media on repetitive embryogenic culture (description) / white embryos, share of tissues / white embryos or white clumps, share of tissues: sucrose 6%, pH 5.7
Protocol: These embedded tissues were manually isolated, separated and transferred into liquid medium (MS medium+BAP 0.2 mg/L). The cultures were maintained at constant agitation (100 rpm) in the dark with biweekly changes of the medium. […] Clumps of white embryogenic tissue masses were divided and transferred to fresh medium for further proliferation. […] Part of these tissues was used for the optimization of culture medium.
The optimization of proliferation medium was conducted through several stages. Each stage lasted for two weeks.

[6] = system: callus; details: Nielson et al. (1995), Roussy et al. (1996); cited from earlier work
[7] = system: secondary somatic embryos of sugar beet; assay: Regeneration of secondary somatic embryos, adventitious shoot formation; type: cell-based, Beta vulgaris
Source text: Somatic embryos produced as described in Example 3 started to germinate as soon as they were transferred to a medium comprising MS basal salts, 3% sucrose and either BAP or TDZ under light. Regeneration began with green or red coloration of an embryo accompanied by formation of primary leaves and roots (FIG. 2C). Since the regeneration medium contained cytokinins, the primary roots were reduced while the shoots developed (FIG. 2D).
To select the best medium for embryo germination, a series of concentrations of BAP and TDZ was tested. The phenotypic effect of applied phytohormones was estimated after three weeks (FIG. 3).

[8] = Cultivar ACH31, Cotyledons, MS + BAP 2 mg/L or TDZ 1 mg/L
[9] = Cultivar ACH31, Hypocotyls, MS + BAP 2 mg/L or TDZ 1 mg/L
[10] = Cultivar ACH31, Hypocotyls, MS + BAP 2 mg/L or TDZ 1 mg/L, dark 21° C.
[11] = Cultivar ACH203, Cotyledons, MS + BAP 2 mg/L or TDZ 1 mg/L
[12] = Cultivar ACH203, Hypocotyls, MS + BAP 2 mg/L or TDZ 1 mg/L
[13] = Cultivar ACH31, Hypocotyls, regeneration medium MS + 1 mg/L BAP or TDZ
[14] = II. MSE, glutamine 2 mg/L, phytohormone 0.1 mg/L
[15] = IV. MSE, glycine 2 mg/L, phytohormone 0.05 mg/L
[16] = IV. MSE, glycine 2 mg/L, phytohormone 0.1 mg/L
[17] = IV. MSE, glycine 2 mg/L, phytohormone 1 mg/L

| SMILES | phenotype of embryos transferred to MS medium containing BAP or TDZ [1] | %A: number of lines producing callus/total number of lines × 100 ([2]; Cultivar ACH31, Cotyledons) [%] | # of lines produced callus [2, 8] | %A: number of lines producing callus/total number of lines × 100 [2, 9] [%] | # of lines produced callus [2, 10] | %A: number of lines producing callus/total number of lines × 100 ([2]; Cultivar ACH203, Cotyledons) [%] | # of lines produced callus [2, 11] | %A: number of lines producing callus/total number of lines × 100 ([2]; Cultivar ACH203, Hypocotyls) [%] | # of lines produced callus [2, 12] | # of lines produced shoots ([3]; Cultivar ACH31, Cotyledons) | %B: number of lines producing callus and regenerating/total number of lines × 100 ([3]; Cultivar ACH31, Cotyledons) [%] | %B: number of lines producing callus and regenerating/total number of lines × 100 ([3]; Cultivar ACH31, Hypocotyls) [%] | # of lines produced shoots [3, 13] | # of lines produced shoots ([3]; Cultivar ACH203, Cotyledons) | %B: number of lines producing callus and regenerating/total number of lines × 100 ([3]; Cultivar ACH203, Cotyledons) [%] | # of lines produced shoots ([3]; Cultivar ACH203, Hypocotyls) | %B: number of lines producing callus and regenerating/total number of lines × 100 ([3]; Cultivar ACH203, Hypocotyls) [%] | Effect of media on repetitive embryogenic culture (description) [5, 15] | white embryos or white clumps, share of tissues [5, 15] [%] | Effect of media on repetitive embryogenic culture (description) [5, 16] | also measured |
| --- | --- | --- | --- | --- | --- | --- | --- | --- | --- | --- | --- | --- | --- | --- | --- | --- | --- | --- | --- | --- | --- |
| c1ccc(CNc2ncnc3nc[nH]c23)cc1 [BAP, 6-benzylaminopurine] | formed multiple shoots but also retained white embryogenic tissues | 1 | 3 | 20 | 43 | 5 | 11 | 18 | 42 | 0 | 0 | 1 | 1 | 2 | 0.9 | 11 | 5 | Light yellow tissues | 25 | Light yellow tissues | %A: number of lines producing callus/total number of lines × 100 ([2]; Cultivar ACH199, Cotyledons): 2%; # of lines produced callus ([2]; Cultivar ACH199, Cotyledons, MS + BAP 2 mg/L): 4; %A: number of lines producing callus/total number of lines × 100 ([2]; Cultivar ACH199, Hypocotyls): 15%; # of lines produced callus ([2]; Cultivar ACH199, Hypocotyls, MS + BAP 2 mg/L): 36; # of lines produced shoots ([3]; Cultivar ACH199, Cotyledons): 1; %B: number of lines producing callus and regenerating/total number of lines × 100 ([3]; Cultivar ACH199, Cotyledons): 0.5%; # of lines produced shoots ([3]; Cultivar ACH199, Hypocotyls): 1; %B: number of lines producing callus and regenerating/total number of lines × 100 ([3]; Cultivar ACH199, Hypocotyls): 0.5%; frequency of embryogenesis [4]: very low; independent callus lines in which embryos were found [4]: two out of 40; separate embryos found ([4]; after a month): Seven; Effect of media on repetitive embryogenic culture (description) [5, 14]: Most tissues are red or dark yellow; white embryos, share of tissues [5, 14]: 10%; Effect of media on repetitive embryogenic culture (description) ([5]; IV. MSE, glycine 2 mg/L, phytohormone 0.01 mg/L): Necrotic tissue with some white embryos; growth is stunted; white embryos or white clumps, share of tissues [5, 16]: 25%; Effect of media on repetitive embryogenic culture (description) [5, 17]: Vigorously growing, vitrified tissues; white embryos, share of tissues [5, 17]: 10% |
| O=C(Nc1ccccc1)Nc1cnns1 [TDZ, thidiazuron] | formed multiple shoots but also retained white embryogenic tissues | 0 | 0 | 45 | 50 | 0 | 0 | 43 | 100 | 0 | 0 | 9 | 10 | 0 | 0 | 40 | 17 | Vigorously expanded dark red culture | 20 | Vigorously expanded dark red culture | production of friable callus and shoots, and plants therefrom: callus induction medium comprising TDZ versus BAP [2]: superior; increase of friable callus formation from hypocotyls, TDZ compared with BAP ([2]; ACH31): two-fold; callus initiation from cotyledons, TDZ compared with BAP ([2]; cotyledons): no TDZ-related improvements; callus formation and plant regeneration, TDZ compared with BAP ([2]; hypocotyls of cultivar ACH203): provided similar results; rate of callus formation from hypocotyls and plant regeneration from such callus, TDZ compared with BAP ([2]; two out of three cultivars tested): dramatically increased; increase of plant regeneration from these calli, TDZ compared with BAP ([3]; ACH31, hypocotyl callus): nine-fold; necrosis [5]: did not cause necrosis; tissue proliferation and anthocyanin production [5]: very quick proliferation of tissue and intensified production of anthocyanins; white embryos or white clumps, share of tissues [5, 16]: 20%; Effect of media on repetitive embryogenic culture (description) [5, 17]: Vigorously expanded dark red culture, no white embryos; effect on embryogenic tissues during medium optimization ([5]; indicated by vigorous growth, red coloration, absence of embryogenic tissue masses): induced the regeneration of embryos; callus-inducing effectiveness [6]: more effective callus-inducing agent than BAP; adventitious shoot formation ([7]; TDZ at 0.03 mg/L, concentrations tested 0.03, 0.1, 0.3, 1 and 3 mg/l, after three weeks): most effective; inducing the formation of adventitious shoots on Beta vulgaris embryos ([7]; compared with BAP): superior to BAP; regeneration, particularly shoot development on Beta vulgaris embryos ([7]; compared with BAP): superior to BAP; vitrification of tissues ([7]; concentrations higher than 0.03 mg/L): caused vitrification of tissues; vitrification of tissues and adventitious shoots ([7]; low concentrations): did not cause vitrification of tissues while producing more adventitious shoots |
